The record followed here is ChEMBL document CHEMBL3507680, “University of Dundee, Gates Library screen for HepG2 cell viability”.

A short description of this data set: Human HepG2 cell viability assay in 384 well format. It counts as toxicity, cell-based. Set-up: dose 125 nL, time 70.5 hour; cytotoxicity at 70.5 h: concentration not given beside the values. The conditions noted are these: HepG2 cells, read-out: Inhibition.

For `Cc1cnccc1CN(C)Cc1c[nH]nc1-c1ccc(F)cc1F`, the cytotoxicity at 70.5 h was found to be 3.5%.
For `O=C(COc1ccc(F)cc1F)N1CCOCC(O)(CN2CCCC2)C1` (configuration not stated) the value was -2.46%.
Consider `CC1CN(c2ccccc2Cl)C(=O)CN1C(=O)c1c[nH]c(=O)c(Cl)c1` (configuration not stated), for which the cytotoxicity at 70.5 h is -0.811%.
As for `Cc1noc(C)c1CN1C[C@@H](C(=O)O)[C@H](c2ccccc2)C1`, the cytotoxicity at 70.5 h was -5.34%.
With `CN(Cc1cccnc1N)Cc1cccc2ncccc12`, the cytotoxicity at 70.5 h was -15.9%.
In the case of `COCc1ccc(C(=O)N2CCC(c3nccn3CC3CC3)CC2)o1`, the cytotoxicity at 70.5 h was -0.956%.
Consider `CC(=O)NCc1cc2n(n1)CCN(Cc1cc(-c3ccccc3)no1)C2`, for which the cytotoxicity at 70.5 h was -18.6%.
`Cc1ccc2nc(C)cc(C(=O)N[C@H]3COC[C@@H]3N3CCOCC3)c2c1`: the cytotoxicity at 70.5 h is -6.73%.
Turning to `Cc1n[nH]c(C)c1Sc1ccccc1NC(=O)N1CCCC(C(N)=O)C1` (configuration not stated), the cytotoxicity at 70.5 h is 5.35%.
For the compound `CCn1c(C)nnc1SCCNc1nc(C)ncc1S(C)(=O)=O`, the cytotoxicity at 70.5 h was -11.4%.
Turning to `Cc1nc(C(C)NC(=O)c2cn(CCC3CCCCC3)nn2)n[nH]1` (configuration not stated), the cytotoxicity at 70.5 h is -23.9%.
As for `N#Cc1ccccc1CN1C[C@@H]2CC[C@H](C1)N(CC1CCC1)C2=O`, the cytotoxicity at 70.5 h was -4.58%.
As to `CCc1nc(Cn2ccnc2-c2nccn2C)no1`, the cytotoxicity at 70.5 h was -7.78%.
In the case of `COc1ccc2[nH]c(=O)c(CN(C)C(C)c3ccccn3)cc2c1` (configuration not stated), the cytotoxicity at 70.5 h is -7.2%.
As to `Cc1nn(-c2ccccc2)c2nc(C(C)(C)CN3CCN(C)CC3)[nH]c12`, the cytotoxicity at 70.5 h is -1.61%.
Under `COc1ccc(C(=O)O)cc1-c1cccc(C(C)N(C)C)c1` (configuration not stated) stands 0.229%; under `Cc1nc(C(F)(F)F)nc(N2CCC(O)(C(=O)O)CC2)c1C`, -6.27%.
For `CC(C)(C)N1CC(C(=O)N2CCN(CCn3cncn3)CC2)CC1=O` (configuration not stated) the value was -3.91%.
Turning to `Cn1c(Cn2ccnc2)nnc1C1CCN(C(=O)c2ccccn2)CC1`, the cytotoxicity at 70.5 h worked out at 5.03%.
Under `CN(C)c1ncc2c(n1)CCCC2NC(=O)C1CC1` (configuration not stated) stands -11.8%; under `CCc1nn(C)c(Cl)c1CN1CCCC(c2cc(O)nc(C)n2)C1` (configuration not stated), -0.921%; under `CCCc1cc(NCCn2cccn2)n2nccc2n1`, 1.84%.
Turning to `CC(C)Cc1ncc2c(n1)CN(C(=O)c1ccc(Cn3ccnc3)o1)C2`, the cytotoxicity at 70.5 h is -17.7%.
Consider `CCOCCN(CCOCC)c1nc(C)nc2sccc12`, for which the cytotoxicity at 70.5 h was -0.429%.
With `CCc1ncc2c(n1)CN(c1cc(NCCO)nc(N)n1)C2`, the cytotoxicity at 70.5 h is -3.48%.
For `COc1ccc(OC2CCN(C(=O)[C@@H](N)Cc3c[nH]cn3)CC2)cc1` the value was 1.71%; for `CN(CCCOc1ccccc1Cl)C(=O)CN1C(=O)CCNC1=O`, -3.2%; for `CCc1cc(N[C@@H]2CC[C@@H](N)C2)n2nc(C)c(C)c2n1`, -7.75%.
With `COc1ccc2c(c1)C(C(=O)N(C)CCc1cnn(C)c1)CC(=O)N2` (configuration not stated), the cytotoxicity at 70.5 h was -8.46%.
As to `Cc1nnc(CN2CCN(C)C3(CCC(=O)N(CCO)CC3)C2)s1` (configuration not stated), the cytotoxicity at 70.5 h was 3.3%.
`CCSc1ncc(-c2nccn2CCN(C)C)cn1`: the cytotoxicity at 70.5 h turned out to be 8.9%.
For `O=C(NCc1ccccn1)c1cc2n(n1)CCNC2` the value was -3.91%.
Turning to `Cc1cc(-c2cc(S(=O)(=O)N3C[C@H](C4CC4)[C@@H](N)C3)c(C)s2)on1`, the cytotoxicity at 70.5 h came out at 19.4%.
With `COCc1nc(CN2CCN(c3ccc(OC)cc3)C(=O)C2C)no1` (configuration not stated), the cytotoxicity at 70.5 h was -27.3%.
For `COCCN1CCCC(O)(CN2CCN(Cc3ccncc3)CC2)C1=O` (configuration not stated), the cytotoxicity at 70.5 h was -8.23%.
For `CCCN(Cc1ccc(S(=O)(=O)NC)cc1)Cc1ccccc1OC` the value was 1.33%; for `OCC1CCCCN1CCn1ccnc1-c1ccc2c(c1)OCCO2` (configuration not stated), -5.38%.
For `Cc1ccsc1[C@@H]1CCN(C(=O)CCc2n[nH]c(C)c2C)C[C@H]1O`, the cytotoxicity at 70.5 h amounted to 0.289%.
Consider `O=C(c1ccc(S(=O)(=O)N2CCSCC2)cc1)N1CCCCCC1`, for which the cytotoxicity at 70.5 h amounted to 14.7%.
As to `CCn1ccnc1C1CCN(C(=O)C(O)c2ccc(OC)cc2)CC1` (configuration not stated), the cytotoxicity at 70.5 h came out at 4.82%.
For `COCc1cc(N2CCc3onc(-c4cccc(OC)c4)c3C2)ncn1`, the cytotoxicity at 70.5 h is -5.12%.
Consider `CN(C)S(=O)(=O)c1csc(C(=O)N2CCSCC2)c1`, for which the cytotoxicity at 70.5 h is -1.94%.
For `CC(=O)N(C)C1CCN(c2ncc3c(n2)CCN3c2ccccc2)C1` (configuration not stated) the value was -3.48%; for `COc1cccc(SCC(=O)N2CCC(N3CCCC(O)C3)CC2)c1` (configuration not stated), -2.74%; for `CCC(C(=O)NCc1ccncc1)N(c1cccc(Cl)c1)S(C)(=O)=O` (configuration not stated), -2.79%.
As to `Cc1cc(C(=O)N2CCCC2)ccc1NS(C)(=O)=O`, the cytotoxicity at 70.5 h is -7.84%.
As for `Cc1nc(N2C[C@H]3CNC[C@H]3C2)c2sccc2n1`, the cytotoxicity at 70.5 h came to 5.86%.
Under `CSCCCn1ccnc1-c1cccc(C#N)c1` stands 8.22%; under `CCN(CC)S(=O)(=O)c1csc(C(=O)N2CCC(C(N)=O)CC2)c1`, -2.86%.
Under `NC(=O)C1CCN(C(=O)c2cc(S(=O)(=O)N3CCCC3)cs2)CC1` stands -8.68%; under `Cc1cc(C(=O)N2CCCCC2)ccc1NS(C)(=O)=O`, -8.47%; under `CNC(=O)c1cc(OC)c(OC)cc1N(C)S(C)(=O)=O`, -7.84%.
For the compound `O=C(Cc1nc(-c2ccncc2)n[nH]1)NCCCN1CCOCC1`, the cytotoxicity at 70.5 h was -10.7%.
In the case of `CN(C)S(=O)(=O)c1csc(C(=O)N2CCC(C(N)=O)CC2)c1`, the cytotoxicity at 70.5 h was -7.56%.
As to `COc1cccc([C@@H]2CCN(Cc3cn(C)c4ccccc34)C[C@H]2O)c1`, the cytotoxicity at 70.5 h was -10.7%.
For `O=C1NCC2(CCCN(C(=O)Nc3cccc(-c4cscn4)c3)CC2)O1` (configuration not stated) the value was 36%; for `Cc1ccc(-c2cc(C(=O)NCCC3=CCCCC3)[nH]n2)o1`, -10.6%.
Take `Cc1ccc(-c2nn(-c3cccc(F)c3)cc2CN(CCO)CCO)o1`: the cytotoxicity at 70.5 h was -17.7%.
With `CCC(=O)N1CCC(Oc2ccc(C(=O)NCCN(C)C)cc2Cl)CC1`, the cytotoxicity at 70.5 h stood at 7.41%.
For `CC(C(=O)N1CCn2cncc2C1)N1CCCC1` (configuration not stated) the value was -0.791%; for `COC(=O)CN1CCCn2nc(CCC(=O)N3CCCC3)cc2C1`, 2.63%.
Under `CCOC(=O)N1CCN(CC(=O)Nc2nnc(C)s2)CC1` stands -6.46%; under `COc1ccnc(CN2CCC(O)(c3ccc(C)cn3)CC2)c1OC`, -5.69%; under `c1coc(-c2nc3c(c(NCc4n[nH]c5c4CCC5)n2)CCNCC3)c1`, 7.72%.
In the case of `O=S(=O)(NCCNc1ccc(-n2cccn2)nn1)c1ccccc1`, the cytotoxicity at 70.5 h is -2.97%.
With `COc1ccc(-c2c[nH]c(C3CC(=O)N(CC(C)C)C3)n2)cc1` (configuration not stated), the cytotoxicity at 70.5 h is -7.11%.
As to `O=C1N(c2ccc(Cl)cc2)Cc2n[nH]c(=O)n21`, the cytotoxicity at 70.5 h is -2.4%.
For `Cc1ccc2c(c1)C(NC(=O)C1CCN(S(C)(=O)=O)CC1)CC(C)(C)O2` (configuration not stated), the cytotoxicity at 70.5 h was -2.93%.
Take `c1cnn(Cc2ccc(CN3CCC4(CCCNC4)C3)cc2)c1` (configuration not stated): the cytotoxicity at 70.5 h came to 21.4%.
In the case of `CC(C)=Cc1c(-c2ccccc2)ncn1CCN(C)S(C)(=O)=O`, the cytotoxicity at 70.5 h is 0.261%.
With `CCN(c1ccc(C(=O)N2CCCCC2)cc1)S(=O)(=O)CC`, the cytotoxicity at 70.5 h was -9.5%.
As to `O=C(c1cncc(N2CC[C@@]3(O)CCNC[C@H]3C2)n1)N1CCCC1`, the cytotoxicity at 70.5 h was -3.92%.
Under `CCN(CCO)C[C@@H]1CN(C(=O)c2ccc(C)s2)C[C@@H]1CO` stands 34.8%; under `Cn1ccc(C2CCCCN2C(=O)c2cccc(-n3cccn3)c2)n1` (configuration not stated), 10.7%; under `CS(=O)(=O)CCC(=O)N1C[C@@H]2CC[C@H](C1)N(Cc1ccccc1)C2=O`, -8.53%.
For `Cc1ccc(CN2CCN(c3ccc(F)cn3)CC2=O)cc1C`, the cytotoxicity at 70.5 h is -3.51%.
On to `COCCN1C[C@@H](C(=O)O)[C@H](c2ccccc2C)C1`, for which the cytotoxicity at 70.5 h came out at 31.8%.
Under `Cc1nn(C)c2ncnc(N3CCCC(C)(O)C3)c12` (configuration not stated) stands -6.93%; under `CCN1CCc2[nH]cnc2C12CCN(c1ccc(Cl)c(C(=O)O)n1)CC2`, -2.9%; under `Cc1cc2c(cc1CN1CCCCC1CCn1ccnc1C)OCO2` (configuration not stated), -1.13%.
For `CCc1ccccc1NC(=O)c1cccc(N(C)S(C)(=O)=O)c1C`, the cytotoxicity at 70.5 h was -4.65%.
As to `Cc1ccccc1C(=O)Nc1ccc(OC2CCN(C)CC2)cc1`, the cytotoxicity at 70.5 h is -4.55%.
With `O=C1COc2cc(C(=O)NS(=O)(=O)c3cccc(Cl)c3)ccc2N1`, the cytotoxicity at 70.5 h is -19.1%.
As to `CCc1ncc2c(n1)CN(Cc1nc(-c3ccoc3)no1)CC2`, the cytotoxicity at 70.5 h was -3.42%.
As to `Cn1ccnc1CN1CCCN(C(=O)c2cccc(CC#N)c2)CC1`, the cytotoxicity at 70.5 h came out at 11.5%.
For `COc1c(CNC2CCCN(c3ncccn3)C2)c(C(C)C)nn1C` (configuration not stated), the cytotoxicity at 70.5 h turned out to be 18.4%.
As for `Cn1ccnc1CN1CCCN(C(=O)c2ccc3c(c2)OCO3)CC1`, the cytotoxicity at 70.5 h was -6.18%.
For the compound `CC(C(=O)N1CCCN(c2ncccc2C#N)CC1)n1cncn1` (configuration not stated), the cytotoxicity at 70.5 h is -12.1%.
Under `CCN(c1ccc(C(=O)N2CCCC2c2cnn(C)c2)cn1)C(C)C` (configuration not stated) stands 16.2%; under `CC(=O)N1CCCN(C(=O)NCc2ccc(-c3ccn[nH]3)cc2)CC1`, -4.56%; under `Cc1ccc(OCCN(C)Cc2nc3c(cnn3C)c(=O)[nH]2)cc1`, -8.39%.
As for `COc1ccc(OCCN(C)Cc2nc3c(cnn3C)c(=O)[nH]2)cc1`, the cytotoxicity at 70.5 h is -3.93%.
Regarding `CS(=O)(=O)NC1CCN(C(=O)NCc2cc[nH]n2)CC1`, the cytotoxicity at 70.5 h is -8.42%.
In the case of `CC(=O)NC1CCCN(C(=O)NCc2cc[nH]n2)C1` (configuration not stated), the cytotoxicity at 70.5 h is -1.94%.
As to `CNC(=O)C1CCN(C(=O)NCc2ccc(-c3ccn[nH]3)cc2)CC1`, the cytotoxicity at 70.5 h was -3.31%.
For `CNC(=O)NC(=O)CN1CCN(c2ccc(C(=O)OC)cc2)CC1C` (configuration not stated), the cytotoxicity at 70.5 h was -7.85%.
Under `COc1cccc(CNC(C)C)c1OCc1ccc(C)cc1` stands -3.04%.
